Assay results from patent US5472979A, “1,2,3,4-tetrahydronaphthalene compounds” (Adir et Compagnie, priority 1993, dated 1995).
Where a name gives a salt, the structure may show the parent alone.

Columns and labels:
[1] = tested on: platelet aggregation induced by the TXA2 agonist, U46619; assay: Platelet aggregation in dogs (PRP, adrenalin + U46619-induced); assay type: cell-based; conditions: Canis lupus familiaris, 0.05 h, dog PRP, 37° C., 3 min, adrenalin (10 μM) then U46619, read-out: IC50 Dog (inhibition of aggregation to U46619 + adrenalin)
Procedure: After anesthetizing the animal with pentobarbital sodium (30 mg/kg i.v.), arterial blood is withdrawn onto sodium citrate (0.109M) (1 vol. of citrate per 9 vol. of blood). The platelet-rich plasma (PRP) is obtained after centrifugation (20° C.) at 200 g for 10 minutes. The number of platelets in the PRP is, on average, 300,000 PL/mm^3 The PRP is stored at the temperature of the room until the time of the test, and is used within 4 hours following withdrawal.
The PRP is incubated at 37° C. in the presence of the antagonist to be tested for 3 minutes. Aggregation is subsequently obtained by the addition of adrenalin (10μM) followed by that of U46619 […] 30 seconds later.

[2] = tested on: platelet aggregation induced by the TXA2 agonist, U46619; assay: Platelet aggregation in rabbits (PRP, U46619-induced); assay type: cell-based; conditions: Oryctolagus cuniculus, rabbit PRP, 37° C., antagonist 3 min before U46619, read-out: IC50 Rabbit (inhibition of U46619-induced platelet aggregation)
Procedure: Rabbits (2-3 kg) are anesthetized with pentobarbital sodium (30 mg/kg i.v.). After cannulation of the left carotid artery, blood is withdrawn onto sodium citrate (0.109M) (1 vol. of citrate per 9 vol. of blood).
Platelet-rich plasma (PRP) is obtained by centrifugation (20° C.) at 250 g for 20 minutes, and platelet-poor plasma (PPP) by centrifugation at 1000 g (10 min). The number of platelets (PL) in the PRP is adjusted to between 300-350,000 PL/mm^3 by dilution with autologous PPP. The PRP is stored at the temperature of the room until the time of the test, and is used within 4 hours following withdrawal.
Platelet aggregation is carried out at 37° C. in siliconed glass tubes using an aggregometer. The PRP and PLs are stirred at 1000 rpm (revolutions per minute). In order to study the activity of thromboxane antagonists, the PRP is incubated for 1 min at 37° C., and the antagonist is then added for a period of 3 min before addition of the agonist U46619 […]. The final volume in the cell is then […]. The intensity of platelet aggregation is established by taking the maximum amplitude of the aggregation plots and is expressed as a percentage light transmission (% T).

platelet TXA2 receptors = target: T1, platelet TXA2 receptors (Homo sapiens, UniProt P21731); assay: Specific binding to human platelet membranes (3H-SQ29548 competition); conditions: 25° C., Cheng and Prusoff
T1 construct: platelet membranes, prepared from washed, ground and centrifuged human platelets; from tissue; host or cells: human platelets (membranes)
T1 sequence (P21731 1-343): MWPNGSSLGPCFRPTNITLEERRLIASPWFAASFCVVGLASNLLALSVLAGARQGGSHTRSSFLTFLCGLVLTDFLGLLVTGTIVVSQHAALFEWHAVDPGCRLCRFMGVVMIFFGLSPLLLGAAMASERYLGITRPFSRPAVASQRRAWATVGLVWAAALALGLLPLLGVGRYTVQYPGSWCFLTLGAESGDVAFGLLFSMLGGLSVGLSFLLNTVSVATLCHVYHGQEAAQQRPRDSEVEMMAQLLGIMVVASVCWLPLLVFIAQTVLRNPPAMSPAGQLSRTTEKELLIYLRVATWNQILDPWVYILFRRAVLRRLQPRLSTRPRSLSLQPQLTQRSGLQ
Procedure: The experiments take place at a temperature of 25° C. in a final reaction volume of 0.2 ml in the presence of 0.1 mg of platelet membranes, prepared from washed, ground and centrifuged human platelets. Determination of the activity of the products of the invention is made by competition experiments, in which increasing concentrations of product are placed in the presence of a fixed concentration of ^3 H-SQ29548. This protocol makes it possible to produce inhibition curves for each antagonist studied. The 50% inhibitory concentration is determined by non-linear regression by the "Simplex" method described by M. S. Caceci et al., (Byte, 340-362, May 1984) calculated according to the mass action law model of C. Michaelis et al. (Biochem. Zeitschrift, 49, 333-369, 1913). The inhibition constant is then determined using the formula of Cheng and Prusoff (Biochem. Pharmacol., 22, 3099-3108, 1973).

[3] = tested on: platelet aggregation induced by the TXA2 agonist, U46619; assay: Platelet aggregation in man (PRP, U46619-induced); assay type: cell-based; conditions: human PRP, procedure of Example 19, U46619 0.3 mM, read-out: IC50 (inhibition of U46619-induced platelet aggregation)
Procedure: Dog platelets respond weakly to U46619 alone. […] The PRP is incubated at 37° C. in the presence of the antagonist to be tested for 3 minutes. Aggregation is subsequently obtained by the addition of adrenalin (10μM) followed by that of U46619 […] 30 seconds later.
Venous blood is obtained from human volunteers who have taken no aspirin for at least 14 days preceding the experiment. Blood is withdrawn onto sodium citrate (0.109M) (1 vol. of citrate per 9 vol. of blood). Platelet-rich plasma (PRP) is obtained after centrifugation (20° C.) at 200 g for 10 minutes. The number of platelets is, on average, 250,000 PL/mm^3. The PRP is stored at the temperature of the room until the time of the test, and is used within 2 hours following withdrawal. The antagonists are tested according to the procedure described in Example 19, using U46619 at the concentration of […].

[4] = tested on: platelet aggregation of U46619; assay: ex vivo platelet aggregation in dogs after oral administration; parameters: species or system dog
Procedure: The experiments are carried out on non-anesthetized dogs. After applying a tourniquet and introduction of a needle into the cephalic vein, blood is withdrawn onto sodium citrate (0.109M). The blood is stored at the temperature of the room. Platelet aggregation is measured in the total blood using an impedance probe in an aggregometer. The pro-aggregating activity of the thromboxane receptor agonist, U46619, is tested in the presence of adrenalin (10 μM). The products of the invention and the reference substances are administered to dogs orally after performing the control test. Blood samples are subsequently withdrawn at determined times: t=30 min, 1 h, 2 h, 4 h, 6 h, 24 h, 48 h, etc. until the aggregation activity of U46619 has fully returned.

[5] = tested on: guinea pig carotid artery; assay: Experimental thrombosis in guinea pig carotid artery; assay type: in vivo; conditions: i.v. injection of 100 μg/kg, n=3; 10±2 CFV/20 min before the treatment; control 9±1 then 8±1
Procedure: The technique recently described by Roux et al., Thrombosis and Haemostasis, 71, 252-256 (1994), was used in order to measure the anti-thrombotic effect of our products. Male guinea pigs (390 to 420 g) were anesthetized with ketamine hydrochloride (90 mg/kg i.m.) and xylazine (12 mg/kg i.m.). A catheter is introduced into the left jugular vein in order to allow the i.v. injection of the substances. The right carotid artery is prepared and a Doppler probe (20 MHz) is installed, which allows the blood flow to be measured. At a distance of two mm from the Doppler probe a subendothelial lesion is produced using a clamp ("pinching"). After introduction of this lesion, the blood flow decreases and stops altogether (between 1 and 2 min). When the flow is at zero, the artery is touched, which removes the occlusive thrombus and restores the flow (see Roux et al., 1994). This thrombotic process is repeated and the cyclic decreases in the flow (CFV=cyclic flow variations) are expressed as a number per 20 min. In control carotid arteries (n=4), the CFVs are counted over 2 periods of 20 min: during the first period, 9±1 CFV/20 min are counted; during the second period, 8±1 CFV/20 min are counted. In a group of animals (n=3) treated with the compound of Example 1, 10±2 CFV/20 min are counted before the treatment and 0.3±0.3 CFV/20 min are counted alter an i.v. injection of 100 μg/kg.

Cc1cc(CCC(=O)O)c2c(c1)CC(NS(=O)(=O)c1ccc(F)cc1)CC2 (stereo not shown) [Example 11, 3-{6-[(4-Fluorophenylsulfonyl)amino]-3-methyl-5,6,7,8-tetrahydronaphth-1-yl}propionic acid] showed an IC50 [1] of 56 nM and an IC50 [2] of 670 nM.

In the case of Cc1ccc2c(c1CCC(=O)O)CCC(NS(=O)(=O)c1ccc(Cl)cc1)C2 (stereo not shown) [Example 1, 3-{6-[(4-Chlorophenylsulfonyl)amino]-2-methyl-5,6,7,8-tetrahydronaphth-1-yl}propionic acid, sodium salt], the IC50 [1] is reported as 28 nM, the Ki (platelet TXA2 receptors) is reported as 0.96 nM and the IC50 [3] is reported as 84 nM. For the same compound, the “duration of complete inhibition of U46619 platelet aggregation ex vivo” value ([4]; 10 μg/kg per os) was “at least 3 days”, the “duration of inhibition of U46619 platelet aggregation ex vivo” value ([4]; 100 μg/kg per os) was “at least 8 days” and the “inhibition of U46619 platelet aggregation ex vivo (words, compared with 100 μg/kg per os, at least 8 days)” value ([4]; 3 mg/kg per os) was “same result”. For the same compound, the “duration of complete inhibition of U46619 platelet aggregation ex vivo” value ([4]; 10 to 3000 μg/kg, orally) was “at least 3 days”, the “duration of complete inhibition of U46619 platelet aggregation ex vivo, highest dose” value ([4]; highest dose of 10 to 3000 μg/kg, orally) was “up to 11 days” and the “cyclic flow variations (CFV) after treatment” value [5] was 0.3±0.3 CFV/20 min. For the same compound, the IC50 [2] was 240 nM.

O=C(O)CCn1c2c(c3ccccc31)C[C@H](NS(=O)(=O)c1ccc(F)cc1)CC2 [BAY U3405, reference compound] was tested, and the IC50 [1] was 110 nM, the Ki (platelet TXA2 receptors) was 3.61 nM and the IC50 [3] was 180 nM. For the same compound, the “duration of total inhibition of aggregation ex vivo” value ([4]; 100 μg/kg per os) was 6 h and the IC50 [2] was 1100 nM.

Work on Cc1ccc2c(c1CCC(=O)O)CCC(NS(=O)(=O)c1cccc3ccccc13)C2 (stereo not shown) [Example 8, 3-[6-(1 -Naphthylsulfonylamino)-2-methyl-5,6,7,8-tetrahydronaphth-1-yl]propionic acid] yielded an IC50 [1] of 150 nM.

Cc1ccc2c(c1CCC(=O)O)CCC(NS(=O)(=O)c1ccc(F)cc1)C2 (stereo not shown) [Example 3, 3-{6-[(4-Fluorophenylsulfonyl)amino]-2-methyl-5,6,7,8-tetrahydronaphth-1-yl}propionic acid, sodium salt] was tested, and the IC50 [1] was 10 nM and the IC50 [2] was 270 nM.

O=C(O)CCc1cccc2c1OCC(NS(=O)(=O)c1ccc(Cl)cc1)C2 (stereo not shown) [Example 16, 3-[3-(4-Chlorophenylsulfonyl)amino-8-chromanyl]propionic acid] showed an IC50 [1] of 20 nM and an IC50 [2] of 250 nM.

In the case of Cc1ccc(S(=O)(=O)NC2CCc3c(CCC(=O)O)cccc3C2)cc1 (stereo not shown) [Example 9, 3-[6-(4-Tolylsulfonylamino)-5,6,7,8-tetrahydronaphth-1-yl]propionic acid], the IC50 [1] is reported as 15 nM and the IC50 [2] is reported as 320 nM.

O=C(O)CCc1cccc2c1OCC(NS(=O)(=O)c1ccc(F)cc1)C2 (stereo not shown) [Example 17, 3-[3-(4-Fluorophenylsulfonyl)aminochroman-8-yl]propionic acid] showed an IC50 [2] of 1100 nM.
